Patent EP3120851A1, “4-AMINO-6-(2,6-DICHLOROPHENYL)-8-METHYL-2-(PHENYLAMINO)-PYRIDO[2,3-D]PYRIMIDIN-7(8H)-ONE FOR TREATMENT OF SOLID CANCERS” (Pangaea Biotech S.L., priority 2015, dated 2017)
Like-named read-outs stand apart in the source and are kept apart here.

Experiments:
Assay in all cases: MTT cell viability assay, combinations (Chou-Talalay method)
Type in all cases: cell-based
HCC78 cells = system: HCC78 cells
Protocol: (§1) The combinations comprising the compound of formula (1) were tested using an MTT proliferation assay in a panel of tumor cell lines of different origins. All culture materials were obtained from the sources described in Example 2. In the Chou-Talalay method, which is the standard, universally known methodology to determine drug interactions, the two drugs under study are maintained at a fixed ratio of IC50 single agent (drug 1):IC50 single agent (drug 2) while the concentration of total amount of drugs in the combination is varied and the 20% (IC20), 50% (IC50) and 80% (IC80) of growth inhibition of the combination is determined.
(§2) In the activity assays on cell lines the following terms are used: • IC50: Drug concentration at which 50% growth inhibition is achieved. • TKI IC50: The IC50 of the tyrosine kinase inhibitor as single agent. • Compound (1) IC50: The IC50 of compound (1) as single agent. • CI@IC20: The combination index of the combination consisting of drug 1 and drug 2 at a weight ratio equal to IC50 of drug 1:IC50 of drug 2 wherein said combination is used at a total amount that achieves 20% of growth inhibition. • CI@IC50: The combination index of the combination consisting of drug 1 and drug 2 at a weight ratio equal to IC50 of drug 1:IC50 of drug 2, wherein said combination is used at a total amount that achieves 50% of growth inhibition. • CI@IC80: The combination index of the combination consisting of drug 1 and drug 2 at a weight ratio equal to IC50 of drug 1:IC50 of drug 2, wherein said combination is used at a total amount that achieves 80% of growth inhibition. • Combination TKI IC50: The combination index at a tyrosine kinase inhibitor concentration that corresponds to the IC50 (single agent). • The combination index (CI) concept was introduced by Chou T.C. and Talalay P.(Chou TC, Talalay P. Adv Enzyme Regul 1984;22:27-55). The derived combination index equation for two drugs is (D = dosage or concentration): CI = ((D)1)/((Dx)1) + ((D)2)/((Dx)2) [formula] where (Dx)1 is the concentration of drug 1 "alone" that inhibits growth at a x% (i.e. (D50)1 is the concentration of drug 1 "alone" that inhibits growth at a 50%), (Dx)2 is the concentration of drug 2 "alone" that inhibits growth at a x%, (D)1 and (D)2 refer to the concentration of drug 1 and drug 2, respectively, in the combination, wherein the combination inhibits growth at the same x%. The CI Value quantitatively defines synergism (CI<1) (in particular, CI values of CI<0.7 indicates strong synergism, 0.7<CI<0.85 indicates moderate synergism, 0.85<CI<1 indicates slight synergism), additive effect (CI=1) and antagonism (CI>1). Based on the above equation, a plot of CI values at different effect levels (fa's) can be determined. Entering a series of "dose" ((D1), (D2), ((Dx)1 and (Dx)2) and % of growth inhibition (%x or effect (fa))" into an excel sheet for each drug alone and their combinations, the CI values at different x% (or fa levels) are obtained using the above equation. This plot is also called the Fa-CI plot or the Chou-Talalay plot.
(§3) Cell viability in response to combination treatment was assessed by the Thiazolyl Blue Tetrazolium Bromide (MTT) (Sigma, St Louis, MO) assay. Cells from each cell line were seeded at 2000 to 10000 per well in 96-well plates. […] Twenty-four hours after seeding, cells were exposed to compound (1), commercial drug or combinations thereof for 72 h. In the Chou-Talalay method, which is the standard, universally known methodology to determine drug interactions, the two drugs under study are maintained at a fixed ratio IC50 single agent (drug 1):IC50 single agent (drug 2).
(§4) After treatment, cells were incubated with medium containing MTT (0.75 mg/mL in medium) for 1-2 h at 37°C. Culture medium with MTT was removed and formazan crystals reabsorbed in 100 µL DMSO (Sigma, St. Louis, MO). Cell viability was determined by measuring the absorbance at 492 nm, using a microplate reader (BioWhittaker, Walkersville, MD).

H3122 Cells = settings: for IC50: Homo sapiens
Protocol: as §1, §2, §3, §4

H2228 Cells = settings: Homo sapiens, H2228 cells
Protocol: as §1, §2, §3, §4

[1] = Homo sapiens, HCC78, 72 h, HCC78 cells, tyrosine kinase inhibitor as single agent, 72 h, read-out: TKI IC50
[2] = NCI-H3122, 72 h, H3122 cells, tyrosine kinase inhibitor as single agent, 72 h, read-out: TKI IC50

SMILES | IC50 (HCC78 cells; HCC78 cells, tyrosine kinase inhibitor as single agent, 72 h, read-out: TKI IC50) [nM] | IC50 (HCC78 cells; [1]) [nM] | IC50 (HCC78 cells; Homo sapiens, HCC78, read-out: Combination TKI IC50, HCC78 cells, TKI in combination with compound (1)) [nM] | IC50 (HCC78 cells; read-out: Combination TKI IC50, HCC78 cells, TKI in combination with compound (1)) [nM] | IC50 (H3122 Cells; [2]) [nM] | IC50 (H3122 Cells; NCI-H3122, read-out: IC50 of crizotinib in presence of compound of formula (1), H3122 cells, combination with compound (1)) [nM] | IC50 (H2228 Cells; NCI-H2228, read-out: IC50 of crizotinib when compound of formula (1) was also administered, combination with compound (1)) [nM] | IC50 (H2228 Cells; NCI-H2228, tyrosine kinase inhibitor as single agent, 72 h, read-out: TKI IC50) [nM] | Fold change in the TKI IC50 (H3122 Cells; H3122 cells, TKI single agent vs with compound (1)) [fold] | IC50 (H3122 Cells; NCI-H3122, H3122 cells, TKI in combination with compound (1), read-out: Combination TKI IC50) [nM] | Fold change in the TKI IC50 (HCC78 cells; HCC78 cells, TKI single agent vs with compound (1)) [fold] | IC50 (HCC78 cells; Homo sapiens, HCC78, HCC78 cells, TKI in combination with compound (1), read-out: Combination TKI IC50) [nM]
C[C@@H](Oc1cc(-c2cnn(C3CCNCC3)c2)cnc1N)c1c(Cl)ccc(F)c1Cl [Crizotinib, 3-[(1R)-1-(2,6-dichloro-3-fluorophenyl)ethoxy]-5-(1-piperidin-4-ylpyrazol-4-yl)pyridin-2-amine] | 7160 | 7200 | 250 | 249 | 190 | 29 | 53 | 250 | – | – | – | –
CCc1cc2c(cc1N1CCC(N3CCOCC3)CC1)C(C)(C)c1[nH]c3cc(C#N)ccc3c1C2=O [Alectinib, 9-ethyl-6,6-dimethyl-8-(4-morpholinopiperidin-1-yl)-11-oxo-6,11-dihydro-5H-benzo[b]carbazole-3-carbonitrile] | – | – | – | – | 50 | – | – | – | 3.355 | 15 | – | –
COc1cc2c(Oc3ccc(NC(=O)C4(C(=O)Nc5ccc(F)cc5)CC4)cc3F)ccnc2cc1OCCCN1CCOCC1 [Foretinib, N^1'-[3-fluoro-4-[[6-methoxy-7-(3-morpholinopropoxy)-4-quinolyl]oxy]phenyl]-N'-(4-fluorophenyl)cyclopropane-1,1-dicarboxamide] | – | 370 | – | – | – | – | – | – | – | – | 2.846 | 130
